Assay results taken from patent US10004701B2, “Methods and compositions for treating infection” (UNIVERSITY OF ROCHESTER, priority 2012, dated 2018).
Like-named read-outs stand apart in the source and are kept apart here.

Columns and labels:
Assay in all cases: AK assay 384-well format, Prestwick library screening
E. faecium = format: cell-based, Enterococcus faecium; details: 50 μM final drug concentration; for fold induction at 50 µM: Enterococcus faecium, 3 h
[1] = tested on: S. aureus strain USA300-0114; format: cell-based, Staphylococcus aureus; details: 50 μM final drug concentration; for fold induction at 50 µM: Staphylococcus aureus, USA300, 3 h
K. pneumoniae = format: cell-based, Klebsiella pneumoniae; details: 50 μM final drug concentration; for fold induction at 50 µM: Klebsiella pneumoniae, 3 h
E. cloacae = format: cell-based, Enterobacter cloacae; details: 50 μM final drug concentration; for fold induction at 50 µM: Enterobacter cloacae, 3 h
P. aeruginosa = format: cell-based, Pseudomonas aeruginosa; details: 50 μM final drug concentration; for fold induction at 50 µM: Pseudomonas aeruginosa, 3 h
[2] = tested on: A. baumannii strain 98-37-09; format: cell-based, Acinetobacter baumannii; details: 50 μM final drug concentration; for fold induction at 50 µM: Acinetobacter baumannii, 983709, 3 h
E. coli = format: cell-based, Escherichia coli; details: 50 μM final drug concentration; for fold induction at 50 µM: Escherichia coli, 3 h
[3] = planktonic E. faecium, positive cutoff 3-fold increase
[4] = planktonic S. aureus, positive cutoff 3-fold increase
[5] = planktonic K. pneumoniae, positive cutoff 3-fold increase
[6] = planktonic E. cloacae, positive cutoff 3-fold increase
[7] = planktonic P. aeruginosa, positive cutoff 3-fold increase
[8] = planktonic A. baumannii, positive cutoff 3-fold increase
[9] = planktonic, cutoff for positive-scoring molecules 3-fold increase

C[C@@H]1C[C@H]2[C@@H]3C[C@H](F)C4=CC(=O)C=C[C@]4(C)[C@@]3(Cl)[C@@H](O)C[C@]2(C)[C@H]1C(=O)COC(=O)C(C)(C)C [Clocortolone pivalate]
fold induction at 50 µM (E. faecium; planktonic E. faecium, positive cutoff 3-fold increase, read-out: AK-based Prestwick library screening result, E. faecium (fold increase in extracellular AK activity)): 1.1 | fold induction at 50 µM ([1]; planktonic S. aureus, positive cutoff 3-fold increase, read-out: AK-based Prestwick library screening result, S. aureus (fold increase in extracellular AK activity)): 1.1 | fold induction at 50 µM (K. pneumoniae; planktonic K. pneumoniae, positive cutoff 3-fold increase, read-out: AK-based Prestwick library screening result, K. pneumoniae (fold increase in extracellular AK activity)): 1 | fold induction at 50 µM (E. cloacae; planktonic E. cloacae, positive cutoff 3-fold increase, read-out: AK-based Prestwick library screening result, E. cloacae (fold increase in extracellular AK activity)): 1.6 | fold induction at 50 µM (P. aeruginosa; planktonic P. aeruginosa, positive cutoff 3-fold increase, read-out: AK-based Prestwick library screening result, P. aeruginosa (fold increase in extracellular AK activity)): 1 | fold induction at 50 µM ([2]; planktonic A. baumannii, positive cutoff 3-fold increase, read-out: AK-based Prestwick library screening result, A. baumannii (fold increase in extracellular AK activity)): 1.2 | fold induction at 50 µM (E. coli; planktonic E. coli, positive cutoff 3-fold increase, read-out: AK-based Prestwick library screening result, E. coli (fold increase in extracellular AK activity)): 1

Cc1ccccc1N1C(=O)c2cc(S(N)(=O)=O)c(Cl)cc2NC1C (stereo not drawn) [Metolazone]
fold induction at 50 µM (E. faecium; 384-well format, cutoff for positive-scoring molecules 3-fold increase, read-out: AK-based Prestwick Library Screening Results, E. faecium (increase in extracellular AK activity)): 0.8 | fold induction at 50 µM ([1]; 384-well format, cutoff for positive-scoring molecules 3-fold increase, read-out: AK-based Prestwick Library Screening Results, S. aureus (increase in extracellular AK activity)): 0.7 | fold induction at 50 µM (K. pneumoniae; 384-well format, cutoff for positive-scoring molecules 3-fold increase, read-out: AK-based Prestwick Library Screening Results, K. pneumoniae (increase in extracellular AK activity)): 0.6 | fold induction at 50 µM (E. cloacae; 384-well format, cutoff for positive-scoring molecules 3-fold increase, read-out: AK-based Prestwick Library Screening Results, E. cloacae (increase in extracellular AK activity)): 1 | fold induction at 50 µM (P. aeruginosa; 384-well format, cutoff for positive-scoring molecules 3-fold increase, read-out: AK-based Prestwick Library Screening Results, P. aeruginosa (increase in extracellular AK activity)): 0.7 | fold induction at 50 µM ([2]; 384-well format, cutoff for positive-scoring molecules 3-fold increase, read-out: AK-based Prestwick Library Screening Results, A. baumannii (increase in extracellular AK activity)): 0.8 | fold induction at 50 µM (E. coli; 384-well format, cutoff for positive-scoring molecules 3-fold increase, read-out: AK-based Prestwick Library Screening Results, E. coli (increase in extracellular AK activity)): 0.8

C[C@H]1O[C@@H](O[C@H]2[C@@H](O)C[C@H](O[C@H]3[C@@H](O)C[C@H](O[C@H]4CC[C@@]5(C)[C@H](CC[C@@H]6[C@@H]5C[C@@H](O)[C@]5(C)[C@@H](C7=CC(=O)OC7)CC[C@]65O)C4)O[C@@H]3C)O[C@@H]2C)C[C@H](O)[C@@H]1O [Digoxin]
fold induction at 50 µM (E. faecium; planktonic E. faecium, […], read-out: AK-based Prestwick Library Screening Results, E. faecium (increase in extracellular AK activity)): 0.9 | fold induction at 50 µM ([1]; planktonic S. aureus, […], read-out: AK-based Prestwick Library Screening Results, S. aureus (increase in extracellular AK activity)): 0.8 | fold induction at 50 µM (K. pneumoniae; planktonic K. pneumoniae, […], read-out: AK-based Prestwick Library Screening Results, K. pneumoniae (increase in extracellular AK activity)): 0.7 | fold induction at 50 µM (E. cloacae; planktonic E. cloacae, […], read-out: AK-based Prestwick Library Screening Results, E. cloacae (increase in extracellular AK activity)): 1.2 | fold induction at 50 µM (P. aeruginosa; planktonic P. aeruginosa, […], read-out: AK-based Prestwick Library Screening Results, P. aeruginosa (increase in extracellular AK activity)): 0.8 | fold induction at 50 µM ([2]; planktonic A. baumannii, […], read-out: AK-based Prestwick Library Screening Results, A. baumannii (increase in extracellular AK activity)): 0.9 | fold induction at 50 µM (E. coli; planktonic E. coli, […], read-out: AK-based Prestwick Library Screening Results, E. coli (increase in extracellular AK activity)): 0.8

CN(C)/N=N/c1[nH]cnc1C(N)=O [Dacarbazine]
fold induction at 50 µM (E. faecium; planktonic E. faecium, cutoff for positive-scoring molecules 3-fold increase, read-out: AK-based Prestwick Library Screening Results, E. faecium (increase in extracellular AK activity)): 1.1 | fold induction at 50 µM ([1]; planktonic S. aureus, cutoff for positive-scoring molecules 3-fold increase, read-out: AK-based Prestwick Library Screening Results, S. aureus (increase in extracellular AK activity)): 0.7 | fold induction at 50 µM (K. pneumoniae; planktonic K. pneumoniae, cutoff for positive-scoring molecules 3-fold increase, read-out: AK-based Prestwick Library Screening Results, K. pneumoniae (increase in extracellular AK activity)): 3.8 | fold induction at 50 µM (E. cloacae; planktonic E. cloacae, cutoff for positive-scoring molecules 3-fold increase, read-out: AK-based Prestwick Library Screening Results, E. cloacae (increase in extracellular AK activity)): 0.8 | fold induction at 50 µM (P. aeruginosa; planktonic P. aeruginosa, cutoff for positive-scoring molecules 3-fold increase, read-out: AK-based Prestwick Library Screening Results, P. aeruginosa (increase in extracellular AK activity)): 0.9 | fold induction at 50 µM ([2]; planktonic A. baumannii, cutoff for positive-scoring molecules 3-fold increase, read-out: AK-based Prestwick Library Screening Results, A. baumannii (increase in extracellular AK activity)): 1.6 | fold induction at 50 µM (E. coli; planktonic E. coli, cutoff for positive-scoring molecules 3-fold increase, read-out: AK-based Prestwick Library Screening Results, E. coli (increase in extracellular AK activity)): 2

CN1[C@@H](CC(=O)c2ccccc2)CCC[C@H]1C[C@H](O)c1ccccc1.Cl [Lobeline alpha (−) hydrochoride]
AK-based Prestwick Library Screening Results, E. faecium (increase in extracellular AK activity) (E. faecium; planktonic E. faecium, […]): 0.9 | AK-based Prestwick Library Screening Results, S. aureus (increase in extracellular AK activity) ([1]; planktonic S. aureus, […]): 0.8 | AK-based Prestwick Library Screening Results, K. pneumoniae (increase in extracellular AK activity) (K. pneumoniae; planktonic K. pneumoniae, […]): 0.7 | AK-based Prestwick Library Screening Results, E. cloacae (increase in extracellular AK activity) (E. cloacae; planktonic E. cloacae, […]): 1.0 | AK-based Prestwick Library Screening Results, P. aeruginosa (increase in extracellular AK activity) (P. aeruginosa; planktonic P. aeruginosa, […]): 0.9 | AK-based Prestwick Library Screening Results, A. baumannii (increase in extracellular AK activity) ([2]; planktonic A. baumannii, […]): 0.8 | AK-based Prestwick Library Screening Results, E. coli (increase in extracellular AK activity) (E. coli; planktonic E. coli, […]): 1.0

N[C@@H]1CONC1=O [D-cycloserine]
AK-based Prestwick library screening result, E. faecium (fold increase in extracellular AK activity) (E. faecium; [3]): 1.2 | AK-based Prestwick library screening result, S. aureus (fold increase in extracellular AK activity) [1, 4]: 1.4 | AK-based Prestwick library screening result, K. pneumoniae (fold increase in extracellular AK activity) (K. pneumoniae; [5]): 1.1 | AK-based Prestwick library screening result, E. cloacae (fold increase in extracellular AK activity) (E. cloacae; [6]): 1.2 | AK-based Prestwick library screening result, P. aeruginosa (fold increase in extracellular AK activity) (P. aeruginosa; [7]): 1.2 | AK-based Prestwick library screening result, A. baumannii (fold increase in extracellular AK activity) [2, 8]: 1.0 | AK-based Prestwick library screening result, E. coli (fold increase in extracellular AK activity) (E. coli; planktonic E. coli, positive cutoff 3-fold increase): 1.4

Butirosin disulfate salt
AK-based Prestwick Library Screening Results, E. faecium (fold increase in extracellular AK activity) (E. faecium; [9]): 0.8 | AK-based Prestwick Library Screening Results, S. aureus (fold increase in extracellular AK activity) [1, 9]: 0.5 | AK-based Prestwick Library Screening Results, K. pneumoniae (fold increase in extracellular AK activity) (K. pneumoniae; [9]): 0.5 | AK-based Prestwick Library Screening Results, E. cloacae (fold increase in extracellular AK activity) (E. cloacae; [9]): 0.4 | AK-based Prestwick Library Screening Results, P. aeruginosa (fold increase in extracellular AK activity) (P. aeruginosa; [9]): 0.5 | AK-based Prestwick Library Screening Results, A. baumannii (fold increase in extracellular AK activity) [2, 9]: 0.5 | AK-based Prestwick Library Screening Results, E. coli (fold increase in extracellular AK activity) (E. coli; planktonic, […]): 0.5

COC(=O)Nc1nc2ccc(SC(C)C)cc2[nH]1 [Methiazole]
AK-based Prestwick library screening result, E. faecium (fold increase in extracellular AK activity) (E. faecium; [3]): 0.5 | AK-based Prestwick library screening result, S. aureus (fold increase in extracellular AK activity) [1, 4]: 1.3 | AK-based Prestwick library screening result, K. pneumoniae (fold increase in extracellular AK activity) (K. pneumoniae; [5]): 0.4 | AK-based Prestwick library screening result, E. cloacae (fold increase in extracellular AK activity) (E. cloacae; [6]): 1.3 | AK-based Prestwick library screening result, P. aeruginosa (fold increase in extracellular AK activity) (P. aeruginosa; [7]): 0.5 | AK-based Prestwick library screening result, A. baumannii (fold increase in extracellular AK activity) [2, 8]: 0.5 | AK-based Prestwick library screening result, E. coli (fold increase in extracellular AK activity) (E. coli; planktonic E. coli, […]): 0.4

CC=CC(=O)N(CC)c1ccccc1C [Crotamiton]
AK-based Prestwick Library Screening Results, E. faecium (fold increase in extracellular AK activity) (E. faecium; […]): 1.1 | AK-based Prestwick Library Screening Results, S. aureus (fold increase in extracellular AK activity) ([1]; […]): 1.3 | AK-based Prestwick Library Screening Results, K. pneumoniae (fold increase in extracellular AK activity) (K. pneumoniae; […]): 1.1 | AK-based Prestwick Library Screening Results, E. cloacae (fold increase in extracellular AK activity) (E. cloacae; […]): 1.3 | AK-based Prestwick Library Screening Results, P. aeruginosa (fold increase in extracellular AK activity) (P. aeruginosa; […]): 1.3 | AK-based Prestwick Library Screening Results, A. baumannii (fold increase in extracellular AK activity) ([2]; […]): 1.3 | AK-based Prestwick Library Screening Results, E. coli (fold increase in extracellular AK activity) (E. coli; […]): 1.5
